In PMC12560828, “Chemical structure drives developmental toxicity of alkyl-substituted naphthalenes in zebrafish” (Environment international, 2025):

How the values were obtained:
[1] = test system: zebrafish larvae, 120 hpf; experiment: Larval photomotor response (LPR) assay after vial exposure; type: in vivo, Danio rerio; details: LPR
In short: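 Embryos bleached at 6 hpf, exposed in sealed glass vials (8 per vial, DMSO stock at 200x) with rotation overnight at 28 °C, then singulated into chemical-free medium and kept dark at 28 °C. Movement tracked minutes 6–24 at 120 hpf, 6 s bins log-normalized to AUC; LEL per light/dark period from first cycle; nominal water concentrations, dead/malformed larvae excluded.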

[2] = test system: early life stage zebrafish; design: method as in Geier et al., 2018a; details: 96-well plate format; ref Geier et al., 2018a; cited from earlier work

In the case of `Cc1ccc2cc(C)ccc2c1` [2,6-dimethylnaphthalene], the fold_change ([1]; period dark, round 1, conc 3.125) is reported as -0.2769, the fold_change ([1]; period dark, round 1, conc 6.25) is reported as -0.4387 and the fold_change ([1]; period dark, round 1, conc 12.5) is reported as -0.1031. For the same molecule, the fold_change ([1]; period dark, round 1, conc 25) was -0.6771, the fold_change ([1]; period dark, round 1, conc 50) was -0.3061 and the fold_change ([1]; period light, round 1, conc 3.125) was -0.2359. It also gave a fold_change ([1]; period light, round 1, conc 6.25) of -0.1972, a fold_change ([1]; period light, round 1, conc 12.5) of 0.2009 and a fold_change ([1]; period light, round 1, conc 25) of -0.2222. For the same molecule, the fold_change ([1]; period light, round 1, conc 50) was -0.2493 and the LPR effects [2] was “all but 2,6-dimethylnaphthalene caused LPR effects”.
